Measurements reported in article PMC11246513, “Exploring bat-inspired cyclic tryptophan diketopiperazines as ABCB1 Inhibitors” (Communications Chemistry, 2024).

Experiments:
[1] = molecular target: T1, ABCB1 (Homo sapiens, UniProt P08183); type: biochemical; parameters: human ABCB1-FLAG, purified and reconstituted into egg lecithin liposome
[2] = molecular target: T2, bat ABCB1 (Pteropus alecto, UniProt L5JS44); test: rhodamine […] efflux inhibition, flow cytometry, PaKiT03 cells with ABCB1 KO control; type: cell-based
T2 construct: gene PAL_GLEAN10013639; endogenous ABCB1 in PaKiT03 cells

[3] = molecular target: T1, ABCB1; test: rhodamine […] efflux inhibition, flow cytometry, HEK293T ABCB1 cells; type: cell-based; parameters: human ABCB1 (ABCB1-TEV-His-FLAG) stably expressed in HEK293T
[4] = molecular target: T2, bat ABCB1; test: rhodamine […] efflux inhibition, flow cytometry, PaKiT03 cells; type: cell-based

T1 sequence (P08183 whole entry): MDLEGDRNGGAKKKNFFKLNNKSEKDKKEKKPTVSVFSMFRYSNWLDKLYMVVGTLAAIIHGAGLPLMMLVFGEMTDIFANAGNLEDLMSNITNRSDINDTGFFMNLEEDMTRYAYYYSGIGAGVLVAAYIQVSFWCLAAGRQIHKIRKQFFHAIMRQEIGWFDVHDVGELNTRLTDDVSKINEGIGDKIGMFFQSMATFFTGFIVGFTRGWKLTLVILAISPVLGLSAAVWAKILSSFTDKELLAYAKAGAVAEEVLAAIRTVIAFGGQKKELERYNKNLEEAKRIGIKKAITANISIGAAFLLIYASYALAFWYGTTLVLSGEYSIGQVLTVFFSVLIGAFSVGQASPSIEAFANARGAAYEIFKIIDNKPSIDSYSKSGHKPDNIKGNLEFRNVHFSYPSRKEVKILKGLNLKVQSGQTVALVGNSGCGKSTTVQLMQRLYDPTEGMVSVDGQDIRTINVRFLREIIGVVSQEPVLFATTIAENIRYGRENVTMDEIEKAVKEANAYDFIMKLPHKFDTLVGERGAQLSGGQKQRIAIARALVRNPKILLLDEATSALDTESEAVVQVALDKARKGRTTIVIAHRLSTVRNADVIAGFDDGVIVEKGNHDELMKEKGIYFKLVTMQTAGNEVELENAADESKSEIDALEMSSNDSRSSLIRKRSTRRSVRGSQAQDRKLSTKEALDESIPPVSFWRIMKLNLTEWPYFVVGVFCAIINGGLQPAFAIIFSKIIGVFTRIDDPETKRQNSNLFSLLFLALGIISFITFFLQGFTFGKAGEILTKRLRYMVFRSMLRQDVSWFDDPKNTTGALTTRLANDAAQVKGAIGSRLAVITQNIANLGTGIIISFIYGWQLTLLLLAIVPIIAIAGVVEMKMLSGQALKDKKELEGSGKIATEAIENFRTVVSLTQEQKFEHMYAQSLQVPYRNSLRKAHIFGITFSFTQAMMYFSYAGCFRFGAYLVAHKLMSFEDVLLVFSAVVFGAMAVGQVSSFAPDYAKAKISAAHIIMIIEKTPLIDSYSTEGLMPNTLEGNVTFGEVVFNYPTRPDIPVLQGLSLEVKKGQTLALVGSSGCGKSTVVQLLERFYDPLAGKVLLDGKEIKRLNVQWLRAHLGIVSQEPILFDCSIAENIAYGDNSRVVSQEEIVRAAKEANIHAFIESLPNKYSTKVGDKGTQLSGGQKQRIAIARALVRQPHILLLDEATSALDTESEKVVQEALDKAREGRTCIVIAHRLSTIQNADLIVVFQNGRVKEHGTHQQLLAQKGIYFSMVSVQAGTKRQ
T2 sequence (L5JS44 1-1308): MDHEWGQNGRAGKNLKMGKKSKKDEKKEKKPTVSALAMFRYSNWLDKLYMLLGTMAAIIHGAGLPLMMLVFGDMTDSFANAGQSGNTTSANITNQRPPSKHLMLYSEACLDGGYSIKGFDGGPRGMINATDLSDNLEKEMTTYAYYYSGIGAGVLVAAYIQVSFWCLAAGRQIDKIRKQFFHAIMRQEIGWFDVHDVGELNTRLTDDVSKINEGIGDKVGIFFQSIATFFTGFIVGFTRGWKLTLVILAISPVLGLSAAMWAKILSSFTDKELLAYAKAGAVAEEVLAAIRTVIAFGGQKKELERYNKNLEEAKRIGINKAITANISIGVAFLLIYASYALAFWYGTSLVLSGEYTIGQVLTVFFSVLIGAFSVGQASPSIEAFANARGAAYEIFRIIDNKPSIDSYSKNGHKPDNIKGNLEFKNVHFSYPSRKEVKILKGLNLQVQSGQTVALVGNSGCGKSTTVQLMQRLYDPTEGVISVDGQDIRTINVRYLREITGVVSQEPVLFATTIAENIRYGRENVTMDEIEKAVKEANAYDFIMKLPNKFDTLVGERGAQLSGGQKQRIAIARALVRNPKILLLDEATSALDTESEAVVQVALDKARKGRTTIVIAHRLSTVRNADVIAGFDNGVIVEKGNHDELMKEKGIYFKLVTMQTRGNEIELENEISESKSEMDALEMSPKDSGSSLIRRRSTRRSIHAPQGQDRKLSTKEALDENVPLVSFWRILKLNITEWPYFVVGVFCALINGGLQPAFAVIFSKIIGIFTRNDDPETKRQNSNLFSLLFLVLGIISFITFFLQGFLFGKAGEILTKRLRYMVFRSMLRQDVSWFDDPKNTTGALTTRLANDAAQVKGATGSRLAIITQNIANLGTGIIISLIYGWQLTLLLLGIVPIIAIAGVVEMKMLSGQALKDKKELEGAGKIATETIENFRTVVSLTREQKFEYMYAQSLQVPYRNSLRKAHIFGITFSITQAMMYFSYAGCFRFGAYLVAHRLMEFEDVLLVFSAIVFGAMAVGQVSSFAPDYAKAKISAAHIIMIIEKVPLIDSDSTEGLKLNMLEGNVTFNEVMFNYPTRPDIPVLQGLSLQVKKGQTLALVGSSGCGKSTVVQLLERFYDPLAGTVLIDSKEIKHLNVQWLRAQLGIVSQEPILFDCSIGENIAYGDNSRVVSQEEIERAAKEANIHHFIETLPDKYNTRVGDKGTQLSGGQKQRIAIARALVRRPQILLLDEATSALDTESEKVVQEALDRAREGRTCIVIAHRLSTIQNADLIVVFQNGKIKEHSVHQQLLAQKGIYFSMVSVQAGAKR

SMILES	ATPase stimulation of purified reconstituted ABCB1 (ADP by HPLC); supported by d [1]	IC50 [2] [nM]	IC50 [3] [nM]	IC50 [4] [nM]
O=C1N[C@@H](Cc2c[nH]c3ccccc23)C(=O)N[C@H]1Cc1c[nH]c2ccccc12 [Cyclo-(L-Trp-L-Trp)]	~ 2 mM	–	–	–
O=C1N[C@@H](Cc2c[nH]c3ccccc23)C(=O)N2[C@H]1C[C@@]1(Cc3ccccc3)c3ccccc3N(Cc3ccccc3)[C@@H]21 [C3N-Dbn-Trp2]	–	900	5900	–
COc1cc2c(cc1OC)CN(CCc1ccc(NC(=O)c3cc(OC)c(OC)cc3NC(=O)c3cnc4ccccc4c3)cc1)CC2 [tariquidar]	–	–	16	2
Cn1cc(C[C@@H]2NC(=O)[C@H](Cc3cn(C)c4ccccc34)NC2=O)c2ccccc21 [Cyclo-(L-1-methyl-Trp-L-1-methyl-Trp)]	Cyclo-(L-1-methyl-Trp-L-1-methyl-Trp) consumed larger amounts of ATP than Cyclo-(L-Trp-L-Trp) in the in vitro ATPase assay	–	–	–
